This data set is described as follows: gradient 5% acetonitrile 3 min, to 50% in 2 min, to 85% in 15 min, held 3 min, 100 µL/min. As to conditions: column: Zorbax Extend-C18 2.1 x 50 mm; eluents: water / acetonitrile, 0.1% formic acid. The procedure, abridged:
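In both positive and negative ionization mode, a quadrupole time-of-flight mass spectrometer coupled to HPLC analyzed pure standards run in mixtures of ~100 molecules. The Zorbax Extend-C18 column (2.1 × 50 mm, 1.8 μm) was operated at 100 μL/min with water and acetonitrile, each containing 0.1% formic acid. The dead volume was 40 μL and the dwell volume 900 μL. Retention time came from adduct peaks that were computationally picked and individually inspected by hand.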
Compound `CCOc1cccc(CNS(=O)(=O)c2cc(-c3nc(C(C)(C)C)cs3)cs2)c1` yielded an RP-LC retention time of 1270 s. The value for `CSc1cccc(NC(=O)c2cn3c(n2)CSCC3)c1` was 763 s. Take `CCCn1c(=O)c2c(nc3n2CCCCN3c2ccc(OCC)cc2)n(C)c1=O`: the RP-LC retention time stood at 973 s. The figure for `COc1ccc(S(=O)(=O)N2CCC[C@@H]2C(=O)NCc2csc(C)n2)cc1OC` is 662 s; for `O=C(Nc1ccccc1)Nc1ccccc1` it is 767 s.

In turn, `COc1ccc(NC(=O)N2CCCC2c2nc(-c3ccccc3OC)no2)cc1Cl` (centres undefined) yielded an RP-LC retention time of 892 s. The figure for `CC(C)Oc1ccc(CNC(=O)C2CCCN(c3ccc(=O)n(-c4ccc(F)cc4)n3)C2)cc1` (centres undefined) is 900 s; for `O=C(NCc1ccccn1)C1CCN(c2ncnc3c2oc2ccccc23)CC1` it is 593 s; for `Cc1ccn2cc(-c3ccc(NC(=O)c4ccc([N+](=O)[O-])cc4Cl)cc3)nc2n1` it is 660 s. The value for `CCN1C(=O)c2cc(S(=O)(=O)Nc3ccc(F)c(Cl)c3)ccc2Oc2cccnc21` was 1090 s.

`Cc1cc2nn(CC(=O)Nc3ccc(Cl)cc3)c(=O)n2c(Nc2ccccc2)n1`: the RP-LC retention time is 1050 s. With `O=C(c1ccccc1Cl)N1CCN(c2cc(-c3cccs3)[nH]n2)CC1`, the RP-LC retention time was 789 s.

Turning to `COc1ccc(CCNC(=O)C2CCN(S(C)(=O)=O)c3cc(Cl)ccc3O2)cc1` (centres undefined), the RP-LC retention time was 889 s. The compound `CC(C)CN1CCn2cc(C(=O)NCc3ccc(F)cc3F)nc2C1` registered an RP-LC retention time of 608 s. Regarding `COc1ccc(N2CC(c3nc(-c4ccccc4F)no3)CC2=O)cc1OC` (centres undefined), the RP-LC retention time came to 808 s. The value for `Cc1oc2c(c1C(=O)NCc1cccc(Br)c1)C1=NCCN1C=N2` was 654 s. `O=C(c1ccccc1)N1CCC(Oc2cc(N3CCOCC3)ncn2)C1` (centres undefined): the RP-LC retention time stood at 676 s.

Compound `COc1ccc(-n2c(=O)n(C)c(=O)c3cc(C(=O)Nc4ccc(F)cc4C)cnc32)cc1` yielded an RP-LC retention time of 866 s.

With `O=C(CN1CCN(c2ccc3c(c2)OCCO3)C1=O)NCc1nc(-c2ccccc2)no1`, the RP-LC retention time amounted to 745 s. The figure for `Cc1ccc2c(C(=O)N3CCN(CC(C)C)CC3)cc(NC(=O)C3CCC3)cc2n1` is 562 s; for `Cc1ccccc1NC(=O)c1cnc2c(c1)c(=O)n(C)c(=O)n2-c1ccccc1` it is 700 s; for `O=S(=O)(c1cccc(C(F)(F)F)c1)N1CCc2nc(-c3ccccc3)ncc2C1` it is 1140 s. The value for `O=S(=O)(Nc1cccn2c(C3CCC3)nnc12)c1cccc2cccnc12` was 749 s. With `CC(C)c1cc(C(C)C)n2nc(N)nc2n1`, the RP-LC retention time turned out to be 734 s. The value for `COC(=O)c1cccc(-c2nc(C3CC(=O)N(c4ccc(F)cc4)C3)no2)c1` (centres undefined) was 884 s. The compound `CCn1cc(CC(=O)NC(C)C)c2cccnc21` gave an RP-LC retention time of 595 s. The compound `CCCCOc1ccc(-c2cc3c4nn(CC(=O)NC5CCCC5)c(=O)n4ccn3n2)cc1` yielded an RP-LC retention time of 1050 s. `COc1ccc(-n2ncc3c(=O)n(Cc4nc(-c5ccc(C)cc5)no4)cnc32)cc1` had an RP-LC retention time of 1030 s. The figure for `CCOC(=O)C1=C(CN2CC(C)CC(C)C2)NC(=O)NC1c1ccc(OC)cc1` (centres undefined) is 653 s; for `COc1ccc(OC)c(-c2ccc(=O)n(Cc3ccccn3)n2)c1` it is 622 s.

`Cc1nc(-c2noc(-c3ccc(F)cc3)n2)cn1CC(=O)NCc1ccc(Cl)cc1` displayed an RP-LC retention time of 896 s. The figure for `Cc1nnc(N2CCCC(C(=O)NCCc3ccco3)C2)c2nn(-c3ccc(Cl)cc3)c(C)c12` (centres undefined) is 743 s. The value for `CCCC1O[C@@H]2C[C@H]3[C@@H]4CCC5=CC(=O)C=C[C@]5(C)[C@H]4[C@@H](O)C[C@]3(C)[C@]2(C(=O)CO)O1` (some centres undefined) was 1000 s; that for `O=C(C1CCN(c2nnc3ccc(Cl)cn23)CC1)N1CCOCC1` was 599 s.

With `Cc1cc(Cl)ccc1OCc1nc(-c2ccc3c(c2)ncn3CCC(=O)N2CCCC2)no1`, the RP-LC retention time is 889 s. The figure for `NC(=O)C1(c2ccccc2F)CC1` is 681 s; for `CC(C)c1ccc(S(=O)(=O)N2CCC(c3cc(N)on3)CC2)cc1` it is 902 s. The figure for `Cc1ccc(-c2nnc(Cc3nc(-c4ccccc4F)no3)o2)cc1C` is 1040 s; for `CCN1C(=O)c2cccnc2Sc2cc(C(=O)NCc3ccc(F)cc3)ccc21` it is 805 s; for `COCCC(=O)N1CC(F)(F)C[C@H]1c1nc(COC)no1` it is 649 s.

The compound `CN(C1CCc2nn(Cc3ccccc3)c(=O)n2CC1)S(C)(=O)=O` (centres undefined) returned an RP-LC retention time of 666 s. The figure for `CC(C)OCCCNC(=O)C1Cn2cccc2C(=O)N1` (centres undefined) is 602 s; for `O=C(Nc1ccc2c(c1)OCCO2)N1CCN(c2nc3cccnc3n(Cc3ccccc3)c2=O)CC1` it is 1000 s; for `COc1ccc(-c2nnc(COc3cccc(NC(=O)c4ccsc4)c3)o2)cc1` it is 914 s. The compound `Cc1ccc(CNC(=O)c2ccc(CN3CCN(C4CCCC4)C(=O)C3=O)cc2)o1` came in with an RP-LC retention time of 728 s.

Compound `Cc1cc(C)c2c(N3CCOCC3)nc(C(=O)N(C)Cc3ccco3)nc2n1` showed an RP-LC retention time of 611 s. The value for `Cc1ccc(NC(=O)C2CCN(S(=O)(=O)c3cc(C(=O)N4CCCC4)n(C)c3)CC2)cc1C` was 836 s; that for `CNC(=O)[C@@H]1CN(C(=O)C2CC=CCC2)C[C@H]1c1nc(C)no1` (some centres undefined) was 642 s. `Cc1ccccc1C(=O)N1CCN(CC(F)(F)F)CC1` returned an RP-LC retention time of 752 s. As for `CCc1nc2cc3c(cc2n1CC(=O)Nc1ccccc1OC)OCCO3`, the RP-LC retention time was determined as 627 s. The value for `COc1cc2c(Nc3ccc(NC(=O)c4ccccc4)cc3)ncnc2cc1OCCCN1CCOCC1` was 627 s; that for `COc1ccc2c(c1)C1(CCN(S(=O)(=O)c3ccccc3)C1)C(=O)N2C` (centres undefined) was 882 s; that for `Cc1noc(-c2nn(C)c3c2CN(C(=O)Nc2ccc(Cl)cc2)CC3)n1` was 790 s. In the case of `CCn1c(N2CCC(C(=O)NCCCOC)CC2)cc(=O)n(C)c1=O`, the RP-LC retention time was found to be 610 s. Compound `CCCCc1nc(N2CCN(C(=O)c3ccco3)CC2)c(C#N)c2c1COC(C)(C)C2` came in with an RP-LC retention time of 1190 s. The value for `CCC(C)NC(=O)c1n[nH]c2c1CCCCCC2` (centres undefined) was 850 s.

The compound `COc1ccccc1N1CCN(c2ncc(C(=O)Nc3ccccc3)c(N)n2)CC1` displayed an RP-LC retention time of 742 s. `COc1cccc(NC(=O)C2CCN(c3nc4ccc(-c5cncnc5)nc4s3)CC2)c1` showed an RP-LC retention time of 736 s. The figure for `O=c1ccn(-c2ccccc2)nc1-c1nc(-c2ccncc2)no1` is 649 s; for `Cc1nc2cc(-c3noc(-c4ccc(Cl)cc4)n3)ccc2o1` it is 1210 s; for `CCc1nc2cc(N3CCC(C(=O)Nc4ccc(OC)c(OC)c4)CC3)cnc2nc1CC` it is 766 s. The figure for `Cc1ccc(C2=NC3(CCN(C(=O)c4ccc(C#N)cc4)CC3)ON2)cc1` is 776 s; for `COCCNC(=O)N1CCC(OC2CCN(Cc3ccccc3)CC2)CC1` it is 571 s; for `Cc1cc(C)cc(Nc2c(C(=O)N3CCOCC3)cnc3nc(C)ccc23)c1` it is 604 s. For `Cc1ccc(-c2cc3c4nnc(SCC(=O)Nc5cc(F)ccc5C)n4ccn3n2)cc1C`, the RP-LC retention time amounted to 1080 s. The figure for `CC1=C(c2ccccc2)S(=O)(=O)N=C1N1CCCN(C(=O)NCc2ccco2)CC1` is 767 s; for `CCC(C)NC(=O)C1CCN(c2cnc(N3CCCCC3)nc2)CC1` (centres undefined) it is 686 s.

In the case of `COc1ccc(OC)c(-c2cn3ccn(-c4ccc(F)c(Cl)c4)c(=O)c3n2)c1`, the RP-LC retention time was determined as 929 s.

Turning to `O=C(NCc1cccs1)C1CCCN(S(=O)(=O)c2cc(-c3noc(C4CCC4)n3)cs2)C1` (centres undefined), the RP-LC retention time turned out to be 1070 s.

As to `COC(=O)c1ccc(NC(=O)c2oc(C)nc2C)cc1`, the RP-LC retention time was 658 s. The value for `Cc1oc(C2CCN(C(=O)Nc3ccc(F)cc3F)CC2)nc1C(=O)N1CCOCC1` was 680 s; that for `Cc1ccc(S(=O)(=O)c2cnc(N3CCN(c4cc(C)ccc4C)CC3)nc2N)cc1` was 1310 s. On to `C[C@H]1CN(C(=O)Nc2ccc3c(c2)CCC3)C[C@@H]1c1nc(-c2cccnc2)no1`, for which the RP-LC retention time is 866 s. The value for `Cc1cc(C(=O)NC2CCCCCC2)n[nH]1` was 724 s. In the case of `CNC(=O)C1CCN(c2nc3ccc(-c4ccc(OC)cc4)nc3s2)CC1`, the RP-LC retention time came to 771 s. The figure for `CN1C(=O)CO[C@@H](C(=O)O)[C@@H]1c1ccccc1` is 621 s. The value for `CC1CCN(c2cc3c(cc2NC(=O)C(C)(C)C)n(C)c(=O)c(=O)n3C)CC1` was 1010 s; that for `Cc1ccc(C)c(Cn2nnc(C(=O)O)c2-c2ccncc2)c1` was 650 s; that for `CCOc1ccc(-c2ccc(=O)n(CCc3nc(-c4ccc5c(c4)OCO5)no3)n2)cc1` was 986 s.

(Values after the METLIN SMRT retention time set (Domingo-Almenara et al. 2019).)
